For one experiment, the system named is phospholipase C gamma-1. The experiment can be described thus: Tyrosine phosphorylation of phospholipase C gamma-1 and other cellular proteins in PC12 cells. In kind it is cell-based. As to the method: (§1) To measure the status of trk tyrosine phosphorylation, PC12 cells were lysed and immunoprecipitated with anti-trk serum. The trk proteins were subjected to 7.5% SDS-PAGE and analyzed by immunoblotting with anti-phosphotyrosine antibodies as described in detail in the literature [Kaplan, D. R. et al., "PDGF beta receptor stimulates tyrosine phosphorylation of GAP and association of GAP with a signaling complex," Cell 61:125-133 (1990)]. Tyrosine phosphorylation of cellular proteins was assayed by probing Western blots of lysates of PC12 cells incubated with K-252b and NT-3 or NGF with anti-phosphotyrosine antibodies. Phospholipase C gammal was identified in these blots as described elsewhere [Vetter, M.L. et al., "Nerve growth factor rapidly stimulates tyrosine phosphorylation of phospholipase C-gammal by a kinase activity associated with the product of trk protooncogene," Proc. Natl Acad. Sci. USA 88:5650-5654 (1991)].

The subject of experiment [1] is epidermal growth factor and basic fibroblast growth factor receptors. The experiment can be described thus: Receptor tyrosine phosphorylation induced by epidermal growth factor and basic fibroblast growth factor in PC12 cells. The experiment is classed as cell-based. The note with it: K-252b.
For experiment [2], the system named is trk. The experiment can be described thus: Cell-free tyrosine phosphorylation of recombinant human trk expressed in Sf9 insect cells. In kind it is biochemical. Particulars: 10 μM K-252b. How it is done:
Human trk and trkB were expressed in Sf9 insect cells transfected using a baculovirus system. The trk proteins were immunoprecipitated as described above and the precipitates were incubated with 20 μCi [gamma-^32 P]ATP, 10 mM MnCl2, 20 mM Tris, pH 7.4, for 5 min at 25° C. in the presence of increasing amounts of K-252b or control solution. Phosphorylated proteins were analyzed as described for FIG. 4B. The tyrosine kinase activity of the trk and trkB proteins was activated in the absence of ligand, a common observation for receptor tyrosine kinase produced in the baculovirus system. The trk and trkB proteins were 25% pure as assayed by SDS-PAGE.
K-252b interacts directly with the trk and trkB protein. Human trk and trkB were expressed in Sf9 insect cells transfected using a baculovirus system. trk proteins were immunoprecipitated and the precipitates were incubated with [gamma^32 P]ATP in the presence of increasing amounts of K-252b or control solution.

In experiment [3] the test system is trk. The experiment can be described thus: trk tyrosine phosphorylation in PC12 cells (immunoprecipitation, anti-phosphotyrosine immunoblot). In kind it is cell-based. How it is done:
as §1
(§2) Experiments on PC12 cells confirmed observations made on primary neuron cultures. Treatment with K-252b stimulated NT-3 induced neurite outgrowth and trk tyrosine phosphorylation in PC12 cells while inhibiting NGF induced effects. PC12 cells were incubated for 48 hours with K-252b (50 nM) and NT-3 or NGF (50 ng/ml). FIG. 4A illustrates the % cells with neurites after 48 hours incubation. Neurites were scored if they were a length of one cell body or more. PC12 cells were subsequently lysed and immunoprecipitated with anti-trk serum. trk proteins were subjected to SDS-PAGE and analyzed by immunoblotting with anti-phosphotyrosine antibodies (FIG. 4B). Lane 1, NT-3 +K-252b; lane 2, NT-3; lane 3, NGF +K-252b; lane 4, NGF. For FIG. 4C, PC12 cells were incubated for 1 hour in K-252b (50 nM or 10 μM) and with NT-3 or NGF for 5 minutes prior to lysis; other methods were the same as described for FIG. 4B. Lane 1, NT-3+10 μM K-252b; lane 2, NT-3±50 nM K-252b; lane 3, NT-3; lane 4, NGF+10 μM K-252b; lane 5, NGF+50 nM K-252b; lane 6, NGF; lane 7, untreated control.
(In general: Immunoblotting shows a protein as a band on a membrane.)

Experiment [4] has as its system chick dorsal root ganglia neurons (DRG). The experiment can be described thus: Survival of dissociated chick DRG neurons (embryonic day 9). In kind it is cell-based. As to the method: DRGs of embryonic day 9 chicks were dissected and dissociated using enzymatic and mechanical procedures as described in the literature [Rosenthal, A. et al., "Primary Structure and Biological Activity of a Novel Human Neurotrophic Factor," Neuron 4:767-773 (1990)]. 1800 neurons were plated per well in 96-well tissue culture plates pretreated with polyornithine (500 μg/ml) and laminin (10 μg/ml). Cells were incubated for 48 hrs with or without growth factors and the indicated concentrations of K-252b. Phase-bright cells with elaborated neurites 5× the diameter of the cell bodies were then counted.
Similar to the findings obtained in primary cultures of brain cholinergic neurons, low concentration of K-252b (50 nM) potentiated the survival promoting action of a maximally effective concentration of NT-3 (FIG. 3). Survival of dissociated chick DRG neurons in presence of rhNGF (100 ng/ml) or rhNT-3 (100 ng/ml) and K-252b is illustrated in FIG. 3; concentrations on the horizontal axis are for K-252b. The columns represent means +SEMs. […] High concentrations of K-252b (10 μM) inhibited the action of NGF on sensory neurons, as found for cholinergic neurons (FIG. 3).

A further experiment concerns PC12 cells. The experiment can be described thus: Neurite outgrowth of PC12 cells. The experiment is classed as cell-based. The note with it: 48 hours. As to the method: PC12 cells were grown as described earlier [Kaplan et al., 1990, 1991a, b]. To assess effects on neurite outgrowth, cells were incubated for 48 hours with K-252b (50 nM) and NT-3 or NGF (50 ng/ml). Neurites were scored if they were a length of one cell body or more.
as §2

The source of these data is patent US6300327A, “Compositions and methods for potentiation of neurotrophin activity” (The University of Southern California, priority 1997, dated 2001).

Consider `CC12OC(CC1(O)C(=O)O)n1c3ccccc3c3c4c(c5c6ccccc6n2c5c31)CNC4=O` (centres unmarked) [K-252b], for which the “NT-3 mediated tyrosine phosphorylation of phospholipase C gamma-1 and other proteins” value in the experiment with phospholipase C gamma-1 (50 nM K-252b + NT-3) is reported as “enhanced”. In the experiment on phospholipase C gamma-1 (K-252b + NGF), the “tyrosine phosphorylation of phospholipase C gamma-1 and other proteins in NGF treated cells” value was “inhibited”. Also, the “effect on receptor responses induced by epidermal growth factor and basic fibroblast growth factor” value in experiment [1] is “failed to influence”. Besides, in the experiment with trk [2], the “effect on trk tyrosine phosphorylation, cell-free system” value is on record as “completely prevented”. Moreover, the “trk tyrosine phosphorylation with NT-3” value with trk [3] (50 nM K-252b + NT-3, 48 hours) is reported as “clear increase”; with trk [3] (1 hour K-252b followed by 5 minutes NT-3) it was “greatly enhanced”. Further, the “effect on NGF-induced trk phosphorylation” value in the experiment on trk [3] (10 μM K-252b, 1 hour, then NGF 5 minutes) is on record as “partially inhibited”. Moreover, the “trk tyrosine phosphorylation, inhibitor alone without NT-3” value in the experiment on trk [3] (K-252b alone) is listed as “identical to untreated controls”. The “effect on survival mediated by NGF or BDNF” value in experiment [4] (50 nM K-252b) is “failed to influence survival”. Moreover, the “number of neurons supported by combination with NT-3” value in experiment [4] (50 nM K-252b + NT-3) is recorded as “identical to that supported by NGF alone”. Moreover, in experiment [4] (50 nM K-252b, rhNT-3 100 ng/ml), the “effect on survival promoting action of NT-3” value was “potentiated”. Also, the “effect on action of NGF on sensory neurons” value in experiment [4] (10 μM K-252b, rhNGF 100 ng/ml) is recorded as “inhibited”. The “reduction of NGF-induced neurite outgrowth” value in the experiment on PC12 cells (50 nM K-252b + NGF 50 ng/ml) is “approximately three-fold”. For the same compound, the “effect on NT-3 induced neurite outgrowth” value in the experiment on PC12 cells (50 nM K-252b + NT-3 50 ng/ml, vs NT-3 alone) is given as “significantly more neurite outgrowth activity”.
